The NIST ThermoML archive (doi:10.1021/acs.jced.8b00370)

Assay: mn = molality of the nth substance listed, in mol/kg
Conditions: 100 kPa, Liquid; for speed of sound: Frequency=3 MHz, Single path-length method; for mass density: Vibrating tube method

OC[C@H]1O[C@@](CO)(O[C@H]2O[C@H](CO)[C@@H](O)[C@H](O)[C@H]2O)[C@@H](O)[C@@H]1O [D-sucrose] + O
Conditions | mass density, 288.15 K [kg/m3] | mass density, 298.15 K [kg/m3] | mass density, 308.15 K [kg/m3] | mass density, 318.15 K [kg/m3] | speed of sound, 288.15 K [m/s] | speed of sound, 298.15 K [m/s] | speed of sound, 308.15 K [m/s] | speed of sound, 318.15 K [m/s]
m1 = 0.1002 | 1012.01 | 1009.81 | 1006.68 | 1002.77 | 1476.3 | 1506 | 1528.2 | 1544
m1 = 0.2007 | 1024.37 | 1022.04 | 1018.8 | 1014.82 | 1486.2 | 1515 | 1536.5 | 1551.6
m1 = 0.3011 | 1036.19 | 1033.73 | 1030.39 | 1026.34 | 1496 | 1524 | 1544.7 | 1559.1
m1 = 0.4034 | 1047.72 | 1045.13 | 1041.69 | 1037.58 | 1506 | 1533.2 | 1553.1 | 1566.7
m1 = 0.4996 | 1058.12 | 1055.43 | 1051.89 | 1047.73 | 1515.3 | 1541.7 | 1561 | 1574.3
m1 = 0.6018 | 1068.73 | 1065.92 | 1062.29 | 1058.07 | 1525.2 | 1550.6 | 1569.3 | 1581.7
m1 = 0.7022 | 1078.71 | 1075.81 | 1072.09 | 1067.82 | 1534.9 | 1559.3 | 1577.2 | 1589.3
m1 = 0.7978 | 1087.87 | 1084.86 | 1081.07 | 1076.72 | 1543.9 | 1567.4 | 1584.8 | 1596.1
m1 = 0.8955 | 1096.86 | 1093.77 | 1089.9 | 1085.49 | 1552.9 | 1575.6 | 1592.3 | 1603.2
m1 = 0.9969 | 1105.83 | 1102.65 | 1098.71 | 1094.23 | 1562.2 | 1583.8 | 1600.1 | 1611
